Drawing on patent US5530126A, “Process for the preparation of substituted 6-(pyrazol-3yl)-1,4-benzoxazin-3-ones” (Monsanto Company, priority 1994, dated 1996), this text covers inhibition for seven molecules.

What all share (type): in vivo
Assay [1] has as its system Seedling johnsongrass. Briefly: Pre-emergence herbicide test. The settings on record: Sorghum halepense, read-out: % plant inhibition (Sejg); for inhibition at 1120 g/ha: 1.12 kg/ha; for inhibition at 11210 g/ha: 11.21 kg/ha. In a few lines:
(§1)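 Known dose of active, dissolved or suspended in acetone or water, delivered onto seed bed prior to emergence and buried under untreated topsoil. Greenhouse incubation with watering from below. Percentage inhibition rated 10-14 days after seeding.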

The subject of assay [2] is Annual bluegrass. As to the kind of experiment: Pre-emergence herbicide test. The settings on record: read-out: % plant inhibition (Anbg); for inhibition at 1120 g/ha: 1.12 kg/ha; for inhibition at 11210 g/ha: 11.21 kg/ha. Summed up: as §1
For assay [3], the system named is Downy Brome. Briefly: Pre-emergence herbicide test. The settings on record: Bromus tectorum, read-out: % plant inhibition (Dobr); for inhibition at 1120 g/ha: 1.12 kg/ha; for inhibition at 11210 g/ha: 11.21 kg/ha. Summed up: as §1
Assay [4] relates to Wild buckwheat. Briefly: Pre-emergence herbicide test. The settings on record: Fallopia convolvulus, read-out: % plant inhibition (Wibw); for inhibition at 1120 g/ha: 1.12 kg/ha; for inhibition at 11210 g/ha: 11.21 kg/ha. In a few lines: as §1
The test system of assay [5] is Barnyardgrass. As to the kind of experiment: Pre-emergence herbicide test. The note with it: Echinochloa crus-galli, read-out: % plant inhibition (Bygr); for inhibition at 1120 g/ha: 1.12 kg/ha; for inhibition at 11210 g/ha: 11.21 kg/ha. Summed up: as §1
Assay [6] concerns Yellow nutsedge. Briefly: Pre-emergence herbicide test. The note with it: Cyperus, read-out: % plant inhibition (Yens); for inhibition at 1120 g/ha: 1.12 kg/ha; for inhibition at 11210 g/ha: 11.21 kg/ha. Summed up: as §1
Assay [7] deals with Velvetleaf. As to the kind of experiment: Pre-emergence herbicide test. The note with it: Abutilon theophrasti, read-out: % plant inhibition (Vele); for inhibition at 1120 g/ha: 1.12 kg/ha; for inhibition at 11210 g/ha: 11.21 kg/ha. Summed up:
as §1

Assay [8] relates to Cocklebur. Briefly: Pre-emergence herbicide test. The note with it: Xanthium strumarium, read-out: % plant inhibition (Cobu); for inhibition at 1120 g/ha: 1.12 kg/ha; for inhibition at 11210 g/ha: 11.21 kg/ha. In a few lines:
as §1

Assay [9] relates to Morningglory. Briefly: Pre-emergence herbicide test. The note with it: Ipomoea, read-out: % plant inhibition (Mogl); for inhibition at 1120 g/ha: 1.12 kg/ha; for inhibition at 11210 g/ha: 11.21 kg/ha. Summed up:
as §1

In assay [10] the test system is Indian Mustard. Briefly: Pre-emergence herbicide test. The settings on record: Brassica juncea, read-out: % plant inhibition (Inmu); for inhibition at 1120 g/ha: 1.12 kg/ha; for inhibition at 11210 g/ha: 11.21 kg/ha. Summed up:
as §1

Assay [11] deals with Seedling johnsongrass. Briefly: Post-emergence herbicide test. The note with it: Sorghum halepense, read-out: % plant inhibition (Sejg); for inhibition at 1120 g/ha: 1.12 kg/ha; for inhibition at 11210 g/ha: 11.21 kg/ha. In a few lines: (§2)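 Soil pans, sub-irrigated; plants sprayed at 2–3 wk; 170.3 kPa atomizer; 1870 L/Ha; ~0.4% v/v emulsifier; % inhibition vs control ~11 d post-spray, sometimes ~25 d.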

For assay [12], the system named is Annual bluegrass. Briefly: Post-emergence herbicide test. The note with it: read-out: % plant inhibition (Anbg); for inhibition at 1120 g/ha: 1.12 kg/ha; for inhibition at 11210 g/ha: 11.21 kg/ha. Summed up:
as §2

For assay [13], the system named is Downy Brome. As to the kind of experiment: Post-emergence herbicide test. The settings on record: Bromus tectorum, read-out: % plant inhibition (Dobr); for inhibition at 1120 g/ha: 1.12 kg/ha; for inhibition at 11210 g/ha: 11.21 kg/ha. In a few lines:
as §2

Assay [14] concerns Wild buckwheat. As to the kind of experiment: Post-emergence herbicide test. The settings on record: Fallopia convolvulus, read-out: % plant inhibition (Wibw); for inhibition at 1120 g/ha: 1.12 kg/ha; for inhibition at 11210 g/ha: 11.21 kg/ha. Summed up: as §2
For assay [15], the system named is Barnyardgrass. Briefly: Post-emergence herbicide test. The note with it: Echinochloa crus-galli, read-out: % plant inhibition (Bygr); for inhibition at 1120 g/ha: 1.12 kg/ha; for inhibition at 11210 g/ha: 11.21 kg/ha. Summed up: as §2
For assay [16], the system named is Yellow nutsedge. As to the kind of experiment: Post-emergence herbicide test. The settings on record: Cyperus, read-out: % plant inhibition (Yens); for inhibition at 1120 g/ha: 1.12 kg/ha; for inhibition at 11210 g/ha: 11.21 kg/ha. Summed up: as §2
In assay [17] the test system is Velvetleaf. As to the kind of experiment: Post-emergence herbicide test. The note with it: Abutilon theophrasti, read-out: % plant inhibition (Vele); for inhibition at 1120 g/ha: 1.12 kg/ha; for inhibition at 11210 g/ha: 11.21 kg/ha. Summed up: as §2
In assay [18] the test system is Cocklebur. As to the kind of experiment: Post-emergence herbicide test. The note with it: Xanthium strumarium, read-out: % plant inhibition (Cobu); for inhibition at 1120 g/ha: 1.12 kg/ha; for inhibition at 11210 g/ha: 11.21 kg/ha. Summed up:
as §2

The test system of assay [19] is Morningglory. Briefly: Post-emergence herbicide test. The settings on record: Ipomoea, read-out: % plant inhibition (Mogl); for inhibition at 1120 g/ha: 1.12 kg/ha; for inhibition at 11210 g/ha: 11.21 kg/ha. In a few lines: as §2
Assay [20] relates to Indian Mustard. Briefly: Post-emergence herbicide test. The settings on record: Brassica juncea, read-out: % plant inhibition (Inmu); for inhibition at 1120 g/ha: 1.12 kg/ha; for inhibition at 11210 g/ha: 11.21 kg/ha. In a few lines:
as §2

The inhibition is the relative decrease from the control value, in per cent. For the molecule `Cn1nc(-c2cc(N)c(Cl)cc2F)c(Cl)c1C(F)F` [Compound 178], the inhibition at 1120 g/ha in the assay on Seedling johnsongrass [1] was 10%; in the assay on Annual bluegrass [2], 20%; with Downy Brome [3], 30%; with Wild buckwheat [4], 100%; in the assay with Barnyardgrass [5] it was 10%; in the assay with Yellow nutsedge [6] it was 0%. The inhibition at 1120 g/ha turned out to be 100% in the assay on Velvetleaf [7]; 20% with Cocklebur [8]; 50% in the assay with Morningglory [9]; 90% with Indian Mustard [10]; 70% in the assay with Seedling johnsongrass [11]; 90% in the assay on Annual bluegrass [12]. Also, the inhibition at 1120 g/ha with Downy Brome [13] amounted to 90%; in the assay with Wild buckwheat [14], 100%; with Barnyardgrass [15] it was 70%; in the assay with Yellow nutsedge [16], 0%; in the assay on Velvetleaf [17], 100%; in the assay with Cocklebur [18], 90%. For the same molecule, the inhibition at 1120 g/ha with Morningglory [19] is 100%; with Indian Mustard [20], 70%.
Turning to `COc1cc(F)c(-c2c(Cl)c(C(F)(F)F)nn2C)cc1[N+](=O)[O-]` [Compound 78], the inhibition at 11210 g/ha with Seedling johnsongrass [1], with Annual bluegrass [2], in the assay with Downy Brome [3], in the assay on Wild buckwheat [4], in the assay with Barnyardgrass [5] and in the assay with Yellow nutsedge [6] was 0% each time. Further, the inhibition at 11210 g/ha was 0% in the assay with Velvetleaf [7]; 0% in the assay with Cocklebur [8]; 0% in the assay with Morningglory [9]; 0% in the assay on Indian Mustard [10]; 10% in the assay on Seedling johnsongrass [11]; 0% in the assay on Annual bluegrass [12]. Moreover, the inhibition at 11210 g/ha with Downy Brome [13] worked out at 10%; in the assay with Wild buckwheat [14], 30%; with Barnyardgrass [15], 0%; with Yellow nutsedge [16], 0%; in the assay with Velvetleaf [17], 40%; in the assay with Cocklebur [18], 10%. Also, the inhibition at 11210 g/ha turned out to be 10% with Morningglory [19] and 40% in the assay on Indian Mustard [20].
Regarding `COc1cc(-c2c(Cl)c(C(F)(F)F)nn2C)c(F)cc1N` [Compound 73], the inhibition at 11210 g/ha in the assay on Seedling johnsongrass [1], in the assay on Annual bluegrass [2], in the assay on Downy Brome [3], with Wild buckwheat [4], in the assay on Barnyardgrass [5] and with Yellow nutsedge [6] was 0% throughout. Also, the inhibition at 11210 g/ha came out at 50% in the assay with Velvetleaf [7]; 0% with Cocklebur [8]; 0% in the assay on Morningglory [9]; 20% in the assay with Indian Mustard [10]; 0% in the assay with Seedling johnsongrass [11]; 0% in the assay with Annual bluegrass [12]. The inhibition at 11210 g/ha came out at 0% with Downy Brome [13]; 20% in the assay with Wild buckwheat [14]; 0% in the assay on Barnyardgrass [15]; 0% in the assay with Yellow nutsedge [16]; 20% in the assay on Velvetleaf [17]; 10% in the assay on Cocklebur [18]. Moreover, the inhibition at 11210 g/ha was determined as 0% in the assay on Morningglory [19] and 20% in the assay on Indian Mustard [20].
As for `Cn1nc(-c2cc(C3=NCCO3)c(Cl)cc2F)c(Cl)c1C(F)(F)F` [Compound 98], the inhibition at 1120 g/ha in the assay with Seedling johnsongrass [1] turned out to be 70%; with Annual bluegrass [2], 0%; with Downy Brome [3], 60%; with Wild buckwheat [4], 60%; in the assay with Barnyardgrass [5], 30%; with Yellow nutsedge [6], 0%. In addition, the inhibition at 1120 g/ha came out at 90% with Velvetleaf [7]; 20% in the assay on Cocklebur [8]; 80% in the assay with Morningglory [9]; 70% in the assay on Indian Mustard [10]; 90% in the assay with Seedling johnsongrass [11]; 70% in the assay on Annual bluegrass [12]. The inhibition at 1120 g/ha is 90% with Downy Brome [13]; 50% with Wild buckwheat [14]; 80% with Barnyardgrass [15]; 0% in the assay on Yellow nutsedge [16]; 100% with Velvetleaf [17]; 100% in the assay with Cocklebur [18]. In addition, the values for the inhibition at 1120 g/ha in the assay with Morningglory [19] and with Indian Mustard [20] were 100% and 80%, respectively.
As for `CCC(C)COC(=O)c1cc(-c2nn(C)c(C(F)(F)F)c2Cl)c(F)cc1Cl` (centres unmarked) [Compound 140], the inhibition at 1120 g/ha was determined as 70% in the assay on Seedling johnsongrass [1]; 30% with Annual bluegrass [2]; 60% in the assay on Downy Brome [3]; 70% with Wild buckwheat [4]; 0% in the assay on Barnyardgrass [5]; 0% in the assay on Yellow nutsedge [6]. The inhibition at 1120 g/ha in the assay with Velvetleaf [7] came to 90%; in the assay with Cocklebur [8], 80%; in the assay on Morningglory [9], 70%; with Indian Mustard [10], 70%; in the assay on Seedling johnsongrass [11], 100%; with Annual bluegrass [12], 100%. For the same molecule, the inhibition at 1120 g/ha in the assay on Downy Brome [13] amounted to 100%; with Wild buckwheat [14], 90%; with Barnyardgrass [15], 100%; with Yellow nutsedge [16] it was 10%; in the assay on Velvetleaf [17], 100%; in the assay with Cocklebur [18] it was 100%. Besides, the inhibition at 1120 g/ha was 100% in the assay on Morningglory [19] and 90% with Indian Mustard [20].
For `Cn1nc(-c2cc(C=O)c(Cl)cc2F)c(Cl)c1C(F)(F)F` [Compound 133, 2-chloro-5-[4-chloro-1-methyl-5-(trifluoromethyl)-1H-pyrazol-3-yl]-4-fluorobenzaldehyde], the inhibition at 1120 g/ha in the assay on Seedling johnsongrass [1] was determined as 80%; in the assay on Annual bluegrass [2], 20%; in the assay with Downy Brome [3] it was 0%; in the assay with Wild buckwheat [4], 70%; in the assay on Barnyardgrass [5], 80%; in the assay with Yellow nutsedge [6], 20%. Besides, the inhibition at 1120 g/ha in the assay on Velvetleaf [7] worked out at 100%; in the assay on Cocklebur [8], 40%; in the assay with Morningglory [9], 70%; in the assay on Indian Mustard [10] it was 100%; with Seedling johnsongrass [11], 50%; in the assay with Annual bluegrass [12] it was 0%. The inhibition at 1120 g/ha with Downy Brome [13] is 20%; with Wild buckwheat [14] it was 80%; in the assay with Barnyardgrass [15], 50%; with Yellow nutsedge [16], 40%; in the assay with Velvetleaf [17], 100%; in the assay on Cocklebur [18], 100%. In addition, the inhibition at 1120 g/ha in the assay with Morningglory [19] amounted to 100%; with Indian Mustard [20] it was 40%.
Take `Cn1nc(-c2ccc([N+](=O)[O-])cc2)c(Cl)c1C(F)(F)F` [Compound 81]: the inhibition at 11210 g/ha with Seedling johnsongrass [1] was found to be 90%; in the assay on Annual bluegrass [2] it was 60%; with Downy Brome [3], 80%; in the assay with Wild buckwheat [4], 100%; with Barnyardgrass [5] it was 60%; with Yellow nutsedge [6], 0%. Moreover, the inhibition at 11210 g/ha was 90% in the assay on Velvetleaf [7]; 20% in the assay on Cocklebur [8]; 30% with Morningglory [9]; 20% in the assay with Indian Mustard [10]; 70% in the assay on Seedling johnsongrass [11]; 0% in the assay with Annual bluegrass [12]. Also, the inhibition at 11210 g/ha worked out at 10% in the assay on Downy Brome [13]; 90% with Wild buckwheat [14]; 70% with Barnyardgrass [15]; 50% in the assay on Yellow nutsedge [16]; 80% in the assay with Velvetleaf [17]; 40% in the assay on Cocklebur [18]. Also, the inhibition at 11210 g/ha amounted to 60% in the assay on Morningglory [19] and 10% in the assay on Indian Mustard [20].
